Reference: BindingDB's records for doi:10.1021/jm021079g (Academy of Sciences of The Czech Republic, 2003)

Target: T1, Dimer of Gag-Pol polyprotein [501-599] (Human immunodeficiency virus 1, UniProt P03367)
T1 construct: 501-599
Assay: Protease Inhibition Assay
Conditions: pH 4.7
Protocol: Inhibition constants were determined by a spectrophotometric assay with the chromogenic peptide substrate.

Row | SMILES | Ki [nM]
1 | CC(C)(C)OC(=O)N[C@@H](Cc1ccccc1)[C@@H](O)CN[C@@H](Cc1ccccc1)C(=O)N[C@@H](CCC(N)=O)C(=O)N[C@@H](Cc1ccccc1)C(N)=O | 33
2 | CC(C)(C)OC(=O)N[C@@H](Cc1ccccc1)[C@@H](O)CN[C@@H](Cc1ccccc1)C(=O)N[C@@H](CCC(=O)O)C(=O)N[C@@H](Cc1ccccc1)C(N)=O | 0.15
